The Ki is the equilibrium dissociation constant of an inhibitor or competing ligand from its target. A higher Ki goes with a looser hold on the target. The term EC50 denotes the concentration giving half of the maximal effect. Low values mean a more potent agent, high ones a less potent agent. By Emax is commonly meant the maximal effect, on the per cent scale that the assay sets.

For test [1], the target named is T1, human 5-HT1B receptor (Homo sapiens, UniProt P28222).
T1 construct: host or cells: HEK293T
T1 sequence (P28222 whole entry): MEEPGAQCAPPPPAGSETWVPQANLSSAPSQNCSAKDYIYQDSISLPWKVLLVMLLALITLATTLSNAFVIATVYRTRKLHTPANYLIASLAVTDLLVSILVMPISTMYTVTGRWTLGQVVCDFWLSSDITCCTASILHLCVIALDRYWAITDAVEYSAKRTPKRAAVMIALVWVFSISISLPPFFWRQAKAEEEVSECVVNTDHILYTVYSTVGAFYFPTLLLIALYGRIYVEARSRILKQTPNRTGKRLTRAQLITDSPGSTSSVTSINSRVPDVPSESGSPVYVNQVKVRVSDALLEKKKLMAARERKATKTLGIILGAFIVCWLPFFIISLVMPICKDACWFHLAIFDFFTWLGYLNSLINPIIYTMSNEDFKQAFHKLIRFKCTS
Briefly: cAMP accumulation (LANCE Ultra TR-FRET) in HEK293T cells, WT 5-HT1B. In kind it is cell-based. The following applies: for 5-HT1B EMAX (%) / Emax: normalized to basal (0%) and 10 μM 5-CT (100%); for EC50: 5-HT1B pEC50, WT receptor; for Emax: HEK-293T, read-out: 5-HT1B EMAX (%), WT receptor. As to the method:
(§1) Briefly, cells transfected with the desired receptor construct and compounds were incubated in the dark for 90 min at 37 °C. After incubation, cAMP detection reagents were added, and TR-FRET was used to quantify the cAMP produced.
(§2) The functional activity of compounds was determined by stimulating cells expressing the desired receptor with FSK and test compound in parallel with 12 known concentrations of cAMP. The known concentrations of cAMP were used to create a standard curve for each experiment that was used to interpolate the unknown values of cAMP in wells with test compounds. […] The EC50 and EMAX values were determined using the “dose response – log[agonist] vs response (three parameter)” nonlinear regression model in Prism and transformed to pEC50 values, reported as mean ± SD.
(§3) Summary of functional assay conditions at various 5-HT1 receptor point mutation constructs.

Test [2] addresses T2, human 5-HT1D receptor (Homo sapiens, UniProt P28221).
T2 construct: host or cells: HEK293T
In words: cAMP accumulation (LANCE Ultra TR-FRET) in HEK293T cells, WT 5-HT1D. It counts as cell-based. The following applies: for 5-HT1D EMAX (%): WT receptor; for 5-HT1D EMAX (%) / Emax: normalized to basal (0%) and 10 μM 5-CT (100%); for EC50: 5-HT1D pEC50, WT receptor, cAMP accumulation, HEKt cells, mean ± SD; for Emax: HEK-293T, read-out: 5-HT1D EMAX (%), WT receptor. As to the method: as §1, §2, §3
(Cyclic AMP is a second messenger, typically raised through Gs and lowered through Gi signalling.)

The target of test [3] is S5.42A 5-HT1B receptor (Homo sapiens, UniProt P28222, S212A). In words: cAMP accumulation in HEK293T cells, S5.42A 5-HT1B. On the set-up: host or cells: HEK293T. It counts as cell-based. The settings on record: point-mutated receptor, 3 independent experiments. The method, then:
as §1, §2
Cell Type Receptor Cell Density [Forskolin] Incubation time
as §3

Test [4] deals with T1, human 5-HT1B receptor. In words: Radioligand binding (saturation and competition), WT 5-HT1B. The settings on record: Affinity (pKi ± SD) 5-HT1B, WT receptor; [^3H]5-CT competition; mean ± SD.
For test [5], the target named is T3, human 5-HT1F receptor (Homo sapiens, UniProt P30939).
T3 construct: host or cells: HEK293T
T3 sequence (P30939 1-366): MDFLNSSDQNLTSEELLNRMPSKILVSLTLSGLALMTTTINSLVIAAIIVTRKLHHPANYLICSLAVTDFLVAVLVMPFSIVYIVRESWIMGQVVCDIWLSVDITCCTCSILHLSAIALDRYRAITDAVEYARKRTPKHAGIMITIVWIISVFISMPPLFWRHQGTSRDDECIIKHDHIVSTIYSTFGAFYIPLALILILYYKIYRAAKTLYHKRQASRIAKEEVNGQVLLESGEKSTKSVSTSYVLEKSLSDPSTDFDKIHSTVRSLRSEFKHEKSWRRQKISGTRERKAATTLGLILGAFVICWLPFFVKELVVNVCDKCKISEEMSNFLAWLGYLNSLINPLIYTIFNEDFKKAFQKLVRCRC
Briefly: Radioligand binding (saturation and competition), WT 5-HT1F.

For test [6], the target named is T2, human 5-HT1D receptor. In words: Radioligand binding (saturation and competition), WT 5-HT1D. The following applies: Affinity (pKi ± SD) 5-HT1D, WT receptor; [^3H]5-CT competition; mean ± SD.
For test [7], the target named is T4, human 5-HT1A receptor (Homo sapiens, UniProt P08908).
T4 construct: host or cells: HEK293T
T4 sequence (P08908 1-422): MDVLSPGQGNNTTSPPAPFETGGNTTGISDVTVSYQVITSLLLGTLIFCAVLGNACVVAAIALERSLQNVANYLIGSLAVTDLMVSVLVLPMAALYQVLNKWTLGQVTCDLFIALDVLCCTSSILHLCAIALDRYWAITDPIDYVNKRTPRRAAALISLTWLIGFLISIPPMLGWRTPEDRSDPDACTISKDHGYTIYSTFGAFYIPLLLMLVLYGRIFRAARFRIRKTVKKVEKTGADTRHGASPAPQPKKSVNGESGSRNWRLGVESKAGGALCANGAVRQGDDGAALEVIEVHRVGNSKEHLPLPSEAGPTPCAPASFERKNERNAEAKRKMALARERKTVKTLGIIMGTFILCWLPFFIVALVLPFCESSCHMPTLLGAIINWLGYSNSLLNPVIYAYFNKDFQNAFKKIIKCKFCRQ
Briefly: Radioligand binding (saturation and competition), WT 5-HT1A. The following applies: WT receptor, [^3H]5-CT competition, mean ± SD; for Ki: Affinity (pKi ± SD) 5-HT1A.

In test [8] the target is T4, human 5-HT1A receptor. Briefly: cAMP accumulation (LANCE Ultra TR-FRET) in HEK293T cells, WT 5-HT1A. It counts as cell-based. The settings on record: for EC50: 5-HT1A pEC50, WT receptor, cAMP accumulation, HEKt cells, mean ± SD; for Emax: HEK-293T, read-out: 5-HT1A EMAX (%), WT receptor; for Emax / 5-HT1A EMAX (%): normalized to basal (0%) and 10 μM 5-CT (100%); for 5-HT1A EMAX (%): WT receptor. As to the method:
as §1, §2, §3

[9] abbreviates: cAMP accumulation, HEKt cells, mean ± SD.

T2 sequence (P28221 whole entry): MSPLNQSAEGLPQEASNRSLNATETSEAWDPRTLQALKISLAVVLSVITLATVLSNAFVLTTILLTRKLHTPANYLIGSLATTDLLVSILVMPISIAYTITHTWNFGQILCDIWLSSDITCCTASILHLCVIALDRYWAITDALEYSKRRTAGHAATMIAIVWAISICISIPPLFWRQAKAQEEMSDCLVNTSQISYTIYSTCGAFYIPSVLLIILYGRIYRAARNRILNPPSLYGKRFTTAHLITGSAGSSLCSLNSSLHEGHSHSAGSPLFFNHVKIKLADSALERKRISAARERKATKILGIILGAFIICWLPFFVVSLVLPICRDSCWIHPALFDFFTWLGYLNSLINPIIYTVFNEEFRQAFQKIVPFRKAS
S5.42A 5-HT1B receptor, sequence (P28222 whole entry S212A): as the sequence (P28222 whole entry) above, with S212A counted along it

As for `NCCc1c[nH]c2ccc(C(N)=O)cc12` [5-CT, 5-carboxamidotryptamine, reference compound], in test [1] (WT receptor, cAMP accumulation, HEKt cells, mean ± SD), the “5-HT1B pEC50” value was determined as 8.46 ± 0.18. The “5-HT1B EMAX (%)” value in test [1] (WT receptor) is given as 100 ± 1%. Moreover, the “5-HT1D EMAX (%)” value in test [2] stood at 101 ± 1%. In test [3], the “change in potency (qualitative)” value was “significant reduction”.

As for `CN(C)[C@H]1CCc2c(cccc2-c2ccccc2)C1` [(S)-5-PAT], the figures for the Ki in test [4], in test [5] and in test [6] were 10.2 nM, 6760 nM and 0.661 nM, respectively. Also, the EC50 is 14.5 nM in test [1] (setting [9]), 0.741 nM in test [2] and 70.8 nM in test [8]. The Emax is roughly 30% in test [1], greater than 90% in test [2] and greater than 90% in test [8]. In addition, the “5-HT1B EMAX (%)” value in test [1] (WT receptor) was 28 ± 3%. In test [2], the “5-HT1D EMAX (%)” value is on record as 97 ± 2%. Also, the “more potent at the 5-HT1D receptor compared to 5-HT1A and 5-HT1B receptors” value in test [2] (cAMP potency ratio) is “over 10 fold”. Besides, in test [7], the “Affinity (pKi ± SD) 5-HT1A” value came out at 8.20 ± 0.04. In test [8], the “5-HT1A EMAX (%)” value is 100 ± 2%.

As for `CN(C)[C@H]1CCc2c(cccc2-c2ccccc2Cl)C1` [(S)-CPT], the Ki in test [4] is 0.891 nM; in test [5], greater than 10000 nM; in test [6], 0.447 nM; in test [7], 5.75 nM. Besides, the EC50 is 0.347 nM in test [1] (setting [9]), 2.24 nM in test [2] and 43.7 nM in test [8]. Also, the figures for the maximum response (Emax) in test [1], in test [2] and in test [8] were greater than 90%, 101 ± 1% and 91 ± 2%, respectively. In test [1] (WT receptor), the “5-HT1B EMAX (%)” value stood at 100 ± 1%.

Regarding `CCCN(CCC)[C@H]1CCc2c(cccc2-c2ccccc2Cl)C1` [(S)-DCPT], the Ki in test [4] is 0.398 nM; in test [5], 7590 nM; in test [6] it was 0.562 nM; in test [7] it was 1.41 nM. The EC50 in test [1] (setting [9]) was 0.288 nM; in test [2] it was 2.4 nM; in test [8] it was 26.3 nM. In addition, the maximum response (Emax) in test [1] was greater than 90%; in test [2], 101 ± 2%; in test [8], 92 ± 4%. For the same compound, the “5-HT1B EMAX (%)” value in test [1] (WT receptor) is listed as 103 ± 2%.

Regarding `CCCN(CCC)[C@H]1CCc2c(cccc2-c2ccccc2F)C1` [(S)-DFPT], the Ki in test [4] was 2 nM; in test [5], 8510 nM; in test [6], 0.155 nM; in test [7] it was 1.45 nM. For the same compound, the EC50 in test [1] (setting [9]) is 1.23 nM; in test [2], 1.17 nM; in test [8] it was 12.6 nM. Moreover, the Emax in test [1] is greater than 90%; in test [2] it was 99 ± 2%; in test [8], 100 ± 2%. Further, in test [1] (WT receptor), the “5-HT1B EMAX (%)” value stood at 100 ± 2%.

Regarding `CN(C)[C@H]1CCc2c(cccc2-c2ccco2)C1` [(S)-FAT], the Ki in test [4] was 132 nM; in test [5], 9330 nM; in test [6], 11.7 nM. Besides, the results for the EC50 in test [1] (setting [9]), in test [2] and in test [8] were 117 nM, 12 nM and 490 nM, respectively. For the same compound, the results for the Emax in test [1], in test [2] and in test [8] were 102 ± 3%, 100 ± 2% and 92 ± 4%, respectively. Also, in test [7], the “Affinity (pKi ± SD) 5-HT1A” value stood at 7.48 ± 0.06.

As to `CN(C)[C@H]1CCc2c(cccc2-c2cccn2C)C1` [(S)-NMP], the Ki is 5.75 nM in test [4], greater than 10000 nM in test [5], 3.98 nM in test [6] and 20.4 nM in test [7]. The figures for the EC50 in test [1] (setting [9]), in test [2] and in test [8] were 11.2 nM, 8.32 nM and 27.5 nM, respectively. Also, the “5-HT1B EMAX (%)” value in test [1] (WT receptor) is listed as 54 ± 5%. Also, the Emax in test [2] and in test [8] was less than 85% in each case. Also, in test [2], the “5-HT1D EMAX (%)” value is reported as 66 ± 6%. Moreover, in test [8], the “5-HT1A EMAX (%)” value came to 70 ± 5%.

`CN(C)[C@H]1CCc2c(cccc2-c2cccs2)C1` [(S)-TAT]: the Ki was 6.31 nM in test [4], greater than 10000 nM in test [5], 1.7 nM in test [6] and 6.17 nM in test [7]. Besides, the EC50 in test [1] (setting [9]) is 15.8 nM; in test [2], 41.7 nM; in test [8], 23.4 nM. Also, the Emax was determined as 85 ± 4% in test [1], 60 ± 3% in test [2] and 91 ± 3% in test [8].

The values are drawn from paper PMC10797628.
